Experimental data as given in the supplement of paper PMC10307832.

Experiments:
Assay in all cases: relative viability (nuclei count vs DMSO), 5 days (fraction); higher = more cells survive
EMC-BAC-2 = test system: EMC-BAC-2
In short: (§1)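 Lung cancer cell lines, seeded in 1536-well plates, were treated the following day by pin tool with a single drug or with five library-drug doses (not always all listed) in √10 steps on top of a fixed anchor-drug dose. Cells were fixed and nuclei stained in one step after 5 days, and nuclei were counted. Relative viability is the nuclei count for treated wells divided by that for vehicle wells, reported as medians of duplicate plates.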

HCC-15 = test system: HCC-15
In short: as §1

NCI-H1755 = test system: NCI-H1755
In short: as §1

NCI-H522 = test system: NCI-H522
In short: as §1

NCI-H23 = test system: NCI-H23
In short: as §1

H3255 = test system: H3255
In short: as §1

NCI-H2126 = test system: NCI-H2126
In short: as §1

NCI-H520 = test system: NCI-H520
In short: as §1

NCI-H1915 = test system: NCI-H1915
In short: as §1

SW 900 = test system: SW 900
In short: as §1

RERF-LC-KJ = test system: RERF-LC-KJ
In short: as §1

LCLC-97TM1 = test system: LCLC-97TM1
In short: as §1

NCI-H3122 = test system: NCI-H3122
In short: as §1

Structure (SMILES): Nc1cccc2c1CN(C1CCC(=O)NC1=O)C2=O (stereo not drawn) [Lenalidomide] + Nc1nc2[nH]cc(CCc3ccc(C(=O)N[C@@H](CCC(=O)O)C(=O)O)cc3)c2c(=O)[nH]1 [Pemetrexed] (partner 0.2 µM)
- relative viability (EMC-BAC-2; first compound 0.253 µM): 0.437
- relative viability (EMC-BAC-2; first compound 0.8 µM): 0.392
- relative viability (EMC-BAC-2; first compound 2.53 µM): 0.451
- relative viability (EMC-BAC-2; first compound 8 µM): 0.463
- relative viability (HCC-15; first compound 0.253 µM): 0.219
- relative viability (HCC-15; first compound 2.53 µM): 0.231
- relative viability (HCC-15; first compound 8 µM): 0.228
- relative viability (NCI-H1755; first compound 0.253 µM): 0.441
- relative viability (NCI-H1755; first compound 0.8 µM): 0.452
- relative viability (NCI-H1755; first compound 2.53 µM): 0.691
- relative viability (NCI-H1755; first compound 8 µM): 0.448
- relative viability (NCI-H522; first compound 0.253 µM): 1.05
- relative viability (NCI-H522; first compound 0.8 µM): 0.912
- relative viability (NCI-H522; first compound 2.53 µM): 1.11
- relative viability (NCI-H522; first compound 8 µM): 0.663
- relative viability (NCI-H23; first compound 0.253 µM): 0.589
- relative viability (NCI-H23; first compound 2.53 µM): 0.861
- relative viability (NCI-H23; first compound 8 µM): 0.694
- relative viability (H3255; first compound 0.253 µM): 0.65
- relative viability (H3255; first compound 0.8 µM): 0.565
- relative viability (H3255; first compound 2.53 µM): 0.585
- relative viability (H3255; first compound 8 µM): 0.605
- relative viability (NCI-H2126; first compound 0.253 µM): 0.655
- relative viability (NCI-H2126; first compound 0.8 µM): 0.679
- relative viability (NCI-H2126; first compound 2.53 µM): 0.75
- relative viability (NCI-H2126; first compound 8 µM): 0.634
- relative viability (NCI-H520; first compound 0.253 µM): 0.722
- relative viability (NCI-H520; first compound 0.8 µM): 0.607
- relative viability (NCI-H520; first compound 2.53 µM): 0.79
- relative viability (NCI-H520; first compound 8 µM): 0.689
- relative viability (NCI-H1915; first compound 0.253 µM): 0.492
- relative viability (NCI-H1915; first compound 0.8 µM): 0.515
- relative viability (NCI-H1915; first compound 2.53 µM): 0.518
- relative viability (NCI-H1915; first compound 8 µM): 0.476
- relative viability (SW 900; first compound 2.53 µM): 0.509
- relative viability (SW 900; first compound 8 µM): 0.477
- relative viability (RERF-LC-KJ; first compound 0.253 µM): 0.542
- relative viability (RERF-LC-KJ; first compound 0.8 µM): 0.412
- relative viability (RERF-LC-KJ; first compound 2.53 µM): 0.503
- relative viability (RERF-LC-KJ; first compound 8 µM): 0.503
- relative viability (LCLC-97TM1; first compound 0.253 µM): 0.175
- relative viability (LCLC-97TM1; first compound 0.8 µM): 0.151
- relative viability (LCLC-97TM1; first compound 2.53 µM): 0.18
- relative viability (LCLC-97TM1; first compound 8 µM): 0.2
- relative viability (NCI-H3122; first compound 0.253 µM): 0.205
- relative viability (NCI-H3122; first compound 0.8 µM): 0.202
- relative viability (NCI-H3122; first compound 2.53 µM): 0.193
- relative viability (NCI-H3122; first compound 8 µM): 0.23
